Experimental data published in PubChem BioAssay (NCI).
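Cultured in 96-well plates, cells were exposed to test compound for 48 hours across five concentrations. At the GI50, growth is halved. TGI denotes the concentration required for complete inhibition of growth.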

Tests used:
Test in all cases: DTP human tumour cell line panel, 48 h
[1] = test system: LOX IMVI melanoma
[2] = test system: KM12 colon
[3] = test system: BT-549 breast
[4] = test system: SK-MEL-2 melanoma
[5] = test system: MALME-3M melanoma
[6] = test system: HCC-2998 colon
[7] = test system: HS 578T breast
[8] = test system: SF-539 CNS
[9] = test system: EKVX NSCLC
[10] = test system: HL-60(TB) leukemia

SMILES | TGI [1] | TGI [2] | TGI [3] | TGI [4] | TGI [5] | TGI [6] | TGI [7] | TGI [8] | TGI [9] | TGI [10] | GI50 [1] | GI50 [2] | GI50 [3] | GI50 [4] | GI50 [5] | GI50 [6] | GI50 [7] | GI50 [8] | GI50 [10]
C=C1CCOC2(C(O)C(C)(O)CO)NC(=O)C1(O)NC2=O (stereo not given) | > 100 µM | > 100 µM | > 100 µM | > 100 µM | > 100 µM | > 100 µM | > 100 µM | > 100 µM | > 100 µM | > 100 µM | – | – | – | – | – | – | – | – | –
Cn1cc2c3ccccc3nc-2c2ccccc21 | 4.36 µM | 6.78 µM | 14.7 µM | 3.52 µM | 5.78 µM | 3.04 µM | 5.3 µM | 3.66 µM | – | 4.48 µM | – | – | – | – | – | – | – | – | –
C/C(=N\NC(N)=S)c1nc2ncccc2[nH]1 | > 100 µM | > 100 µM | > 96.7 µM | > 100 µM | > 100 µM | > 100 µM | > 100 µM | > 100 µM | > 100 µM | > 79.1 µM | – | – | – | – | – | – | – | – | –
COc1ccc(Nc2nc(N)c(C(=O)c3ccc(Cl)cc3)s2)cc1 | 19.9 µM | 0.536 µM | > 73.6 µM | 38.6 µM | – | 3.47 µM | > 100 µM | 0.18 µM | > 100 µM | < 0.0331 µM | – | – | – | – | – | – | – | – | –
CCCCCCCCCCCCOC1C(COCCN2CCCCC2)OC2OC(C)(C)OC21 (stereo not given) | 3.01 µM | 3.06 µM | 5.8 µM | 3.14 µM | 3.28 µM | 3.01 µM | 4.17 µM | 3.18 µM | – | 3.02 µM | – | – | – | – | – | – | – | – | –
COC(=O)c1ccccc1C1CN=NC12Cc1ccc3c(c1C2=O)CCC3 (stereo not given) | > 100 µM | > 100 µM | > 100 µM | > 100 µM | > 100 µM | > 100 µM | > 100 µM | > 100 µM | > 100 µM | > 100 µM | – | – | – | – | – | – | – | – | –
COc1ccc2c(c1)/c(=C/C#N)c1c3ccccc3[n+](C)n21 | 28.6 µM | 17.9 µM | 26.1 µM | 36.1 µM | 14.3 µM | 6.83 µM | 50.4 µM | 11.8 µM | 16.5 µM | > 48.3 µM | – | – | – | – | – | – | – | – | –
COc1ccc(-c2oc3cc(O)c(OC)c(O)c3c(=O)c2O)cc1 | > 78.6 µM | > 100 µM | 72.8 µM | > 100 µM | 88.2 µM | > 60.2 µM | > 92.7 µM | 41.6 µM | > 100 µM | 9.19 µM | – | – | – | – | – | – | – | – | –
COc1ccc([I+]c2ccc(OC)cc2)cc1 | > 100 µM | > 100 µM | > 100 µM | > 100 µM | > 100 µM | > 100 µM | > 100 µM | > 100 µM | > 100 µM | > 100 µM | 6.05 µM | 6.63 µM | 11.1 µM | 43.9 µM | 13.8 µM | 16 µM | 18.8 µM | 11 µM | 6.4 µM
COC(=O)c1c2c(cc3c1CC1(Cc4ccccc4C1)C3)CCC2 | 34 µM | 70.2 µM | 95.5 µM | – | 67.2 µM | 98.7 µM | 79.7 µM | > 100 µM | 98.7 µM | 69.5 µM | – | – | – | – | – | – | – | – | –
CCC(Nc1ncnc2nc[nH]c12)C(=O)O (stereo not given) | > 100 µM | > 100 µM | > 100 µM | > 100 µM | > 100 µM | > 100 µM | > 100 µM | – | > 100 µM | > 100 µM | – | – | – | – | – | – | – | – | –
CCOC(=O)c1nc2cc(Cl)ccc2[nH]c1=O | > 100 µM | > 100 µM | > 100 µM | > 100 µM | > 100 µM | > 100 µM | > 100 µM | > 100 µM | > 100 µM | > 100 µM | – | – | – | – | – | – | – | – | –
CSc1ccc2c(c1)c(CCN)c(C)n2Cc1ccccc1Cl | – | 3.32 µM | 33.5 µM | 3.26 µM | 3.34 µM | 2.04 µM | 3.67 µM | 2.26 µM | 3.12 µM | 3.2 µM | – | – | – | – | – | – | – | – | –
CCOC(=O)NN(C(=O)OCC)C(C(=O)c1ccccc1)N(NC(=O)OCC)C(=O)OCC | > 100 µM | > 100 µM | > 100 µM | – | > 100 µM | > 100 µM | > 100 µM | > 100 µM | > 100 µM | > 100 µM | – | – | – | – | – | – | – | – | –
CN(C)S(=O)(=O)c1nc(Cl)c2[nH]cnc2n1 | > 100 µM | > 100 µM | > 100 µM | > 100 µM | > 100 µM | > 100 µM | > 100 µM | – | > 100 µM | > 100 µM | – | – | – | – | – | – | – | – | –
CCOC(=O)c1cc(C)nc2c1c(=O)n(-c1ccccc1)c(=O)n2CCCCN1CCN(c2ncccn2)CC1 | > 100 µM | > 100 µM | > 100 µM | > 100 µM | > 100 µM | > 100 µM | > 100 µM | – | > 100 µM | 57.1 µM | – | – | – | – | – | – | – | – | –
COc1ccc(-c2cc(-c3ccc(Nc4ccnc5cc(Cl)ccc45)cc3)[nH]c(=O)c2C#N)cc1 | > 100 µM | > 100 µM | > 100 µM | > 100 µM | > 100 µM | > 100 µM | > 100 µM | > 100 µM | > 100 µM | > 100 µM | – | – | – | – | – | – | – | – | –
